The values that follow are results of earlier work, collected in patent US20120263660A1, “Hair Loss Treatment” (POP TEST CORTISOL LLC, priority 2011, published 2012).

The conditions of data set [1]: all phase I and phase II clinical trials already performed.
For data set [2] the following is noted: disclosed in U.S. Pat. No. 6,011,025.
The next data set concerns the target T1, progesterone receptor (Homo sapiens, UniProt P06401).
T1 sequence (P06401 1-933): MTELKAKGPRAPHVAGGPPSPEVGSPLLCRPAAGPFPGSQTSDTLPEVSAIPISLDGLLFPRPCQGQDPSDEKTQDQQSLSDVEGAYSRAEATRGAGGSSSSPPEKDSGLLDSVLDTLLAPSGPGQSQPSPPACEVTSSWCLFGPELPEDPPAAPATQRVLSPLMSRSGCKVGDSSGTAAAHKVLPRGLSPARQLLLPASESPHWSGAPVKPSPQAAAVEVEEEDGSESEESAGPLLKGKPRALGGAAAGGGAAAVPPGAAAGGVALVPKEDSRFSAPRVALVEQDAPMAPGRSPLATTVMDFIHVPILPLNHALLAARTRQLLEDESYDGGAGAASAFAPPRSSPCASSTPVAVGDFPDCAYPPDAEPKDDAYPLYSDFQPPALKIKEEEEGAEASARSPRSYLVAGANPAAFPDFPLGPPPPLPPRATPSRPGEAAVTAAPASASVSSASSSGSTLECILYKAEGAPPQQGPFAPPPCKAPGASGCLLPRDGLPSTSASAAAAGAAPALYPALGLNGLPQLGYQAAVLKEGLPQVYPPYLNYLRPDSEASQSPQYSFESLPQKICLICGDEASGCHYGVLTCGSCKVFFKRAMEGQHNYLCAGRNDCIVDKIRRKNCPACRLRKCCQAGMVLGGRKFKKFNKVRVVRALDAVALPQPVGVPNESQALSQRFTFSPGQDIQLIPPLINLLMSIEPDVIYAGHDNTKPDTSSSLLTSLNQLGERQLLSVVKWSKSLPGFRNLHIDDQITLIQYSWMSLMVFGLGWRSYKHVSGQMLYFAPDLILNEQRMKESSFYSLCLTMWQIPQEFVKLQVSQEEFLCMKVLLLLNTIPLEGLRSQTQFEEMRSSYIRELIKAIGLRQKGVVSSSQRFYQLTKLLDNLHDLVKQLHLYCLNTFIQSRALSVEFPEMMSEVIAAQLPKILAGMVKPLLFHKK
The conditions noted are these: specificity for GR blockade.

The conditions of data set [3]: disclosed in U.S. Pat. No. 6,011,025. The source holds these as a separate data set.
In data set [4] the target is T2, glucocorticoid receptor [GR] (Homo sapiens, UniProt P04150).
T2 sequence (P04150 1-777): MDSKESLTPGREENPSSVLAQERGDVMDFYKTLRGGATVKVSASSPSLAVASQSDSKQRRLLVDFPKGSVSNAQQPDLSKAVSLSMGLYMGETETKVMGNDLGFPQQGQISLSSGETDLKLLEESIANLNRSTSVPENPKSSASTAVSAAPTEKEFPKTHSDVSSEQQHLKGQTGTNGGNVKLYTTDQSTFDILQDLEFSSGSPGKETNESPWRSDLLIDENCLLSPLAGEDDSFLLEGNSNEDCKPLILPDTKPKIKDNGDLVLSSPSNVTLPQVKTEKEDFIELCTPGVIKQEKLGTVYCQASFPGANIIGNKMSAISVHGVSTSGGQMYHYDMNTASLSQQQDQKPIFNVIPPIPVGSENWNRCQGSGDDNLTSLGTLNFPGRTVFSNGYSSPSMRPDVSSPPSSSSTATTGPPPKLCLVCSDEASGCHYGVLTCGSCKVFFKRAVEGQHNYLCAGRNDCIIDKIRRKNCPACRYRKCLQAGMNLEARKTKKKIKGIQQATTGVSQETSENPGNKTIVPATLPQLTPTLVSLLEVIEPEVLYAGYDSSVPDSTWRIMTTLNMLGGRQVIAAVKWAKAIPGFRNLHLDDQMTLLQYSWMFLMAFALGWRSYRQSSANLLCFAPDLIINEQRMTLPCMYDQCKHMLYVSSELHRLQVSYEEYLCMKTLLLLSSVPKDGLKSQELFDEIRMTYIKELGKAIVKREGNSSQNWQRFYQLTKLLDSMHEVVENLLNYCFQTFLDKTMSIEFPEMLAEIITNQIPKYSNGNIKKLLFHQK
The note with it: disclosed in U.S. Pat. No. 6,011,025.

A further data set deals with estrogen receptor. The conditions noted are these: specificity for GR blockade.

For the compound `CC#C[C@]1(O)CC[C@H]2[C@@H]3CCC4=CC(=O)CCC4=C3[C@@H](c3ccc4c(c3)OCO4)C[C@@]21C` [ORG 34517], the “significant toxicities and side effects” value in data set [1] is on record as “none were identified”. Further, the androgenic activity entry in data set [2] was “low”. Further, the “cross-binding to progesterone receptor” value on progesterone receptor is on record as “without significant cross-binding”. Besides, in data set [3], the progestagenic activity entry is reported as “low”. In addition, the GR binding affinity entry in data set [4] is “high”. The “cross-binding to estrogen receptor” value with estrogen receptor is on record as “without significant cross-binding”.
